In assay [1] the target is T1, Rac GTPase-activating protein 1 (Homo sapiens, UniProt Q9H0H5).
T1 sequence (Q9H0H5 whole entry): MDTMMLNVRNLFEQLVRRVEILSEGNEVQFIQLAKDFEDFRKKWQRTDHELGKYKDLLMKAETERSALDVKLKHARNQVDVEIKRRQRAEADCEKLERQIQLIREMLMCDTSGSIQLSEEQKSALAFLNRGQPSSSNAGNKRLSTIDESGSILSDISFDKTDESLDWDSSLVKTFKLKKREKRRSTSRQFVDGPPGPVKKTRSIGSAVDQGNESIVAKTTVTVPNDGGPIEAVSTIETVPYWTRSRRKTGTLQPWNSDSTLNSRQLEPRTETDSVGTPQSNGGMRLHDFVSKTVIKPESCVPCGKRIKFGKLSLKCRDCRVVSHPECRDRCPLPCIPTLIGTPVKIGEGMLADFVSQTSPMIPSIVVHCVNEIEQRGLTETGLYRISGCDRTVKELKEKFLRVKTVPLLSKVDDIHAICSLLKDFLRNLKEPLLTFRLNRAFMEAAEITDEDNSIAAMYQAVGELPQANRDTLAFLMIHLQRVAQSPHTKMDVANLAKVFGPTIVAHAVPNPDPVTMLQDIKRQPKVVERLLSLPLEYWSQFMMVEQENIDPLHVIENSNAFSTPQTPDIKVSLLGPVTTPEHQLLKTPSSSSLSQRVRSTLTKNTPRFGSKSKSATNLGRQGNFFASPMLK
The experiment in a line: MgcRacGAP GTPase-activating activity inhibitors, confirmation, biochemical, ADP Hunter fluorescence, primary and confirmatory (AID 624330). In kind it is functional.

A short description of another assay: cells. In kind it is functional.
A further assay concerns H4. The assay can be described thus: Luminescence Cell-Based Dose Response HTS to Identify Activators of 5'UTR Stem-Loop Driven Prion Protein mRNA Translation in H4 Neuroglioblastoma Cells. [Related pubchem assays: 1829 (Project Summary), 1814 (Primary HTS)]. The settings on record: Homo sapiens. In kind it is functional.
Assay [2] can be described thus: Luminescence Cell-Based Dose Response HTS to Identify Activators of Luciferase Translation or Activity in H4 […] Cells. [Related pubchem assays: 1829 (Project Summary), 1814 (Primary HTS)]. In kind it is functional.
The next assay deals with Cytochrome P450 2D6 (Homo sapiens, UniProt P10635).
The next assay relates to Streptococcus. The experiment in a line: Group A Streptococcus viability loss, dose response, counter-screen for streptokinase expression inhibitor project, luminescence, BacTiterGlo (AID 1915).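 Also: potency for reduction of bacterial viability or growth.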 In kind it is functional, organism-based.
In a further assay the target is T2, Streptokinase A (Streptococcus pyogenes serotype M1, UniProt P10520).
T2 sequence (P10520 whole entry): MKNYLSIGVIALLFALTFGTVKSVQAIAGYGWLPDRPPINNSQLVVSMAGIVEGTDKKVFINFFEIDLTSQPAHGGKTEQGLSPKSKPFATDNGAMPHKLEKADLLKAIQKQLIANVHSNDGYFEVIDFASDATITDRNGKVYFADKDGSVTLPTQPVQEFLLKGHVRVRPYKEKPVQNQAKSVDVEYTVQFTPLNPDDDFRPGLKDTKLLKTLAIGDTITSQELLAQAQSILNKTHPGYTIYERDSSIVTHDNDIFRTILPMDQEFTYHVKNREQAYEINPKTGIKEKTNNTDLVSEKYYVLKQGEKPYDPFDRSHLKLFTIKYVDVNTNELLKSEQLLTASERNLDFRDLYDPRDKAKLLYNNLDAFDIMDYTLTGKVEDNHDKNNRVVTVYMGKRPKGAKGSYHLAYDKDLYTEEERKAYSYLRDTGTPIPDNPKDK
The experiment in a line: S. pyogenes streptokinase expression inhibitors, potency, dose response, plasminogen activation absorbance, OD405 (AID 1914).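 Also: secreted streptokinase activity via plasminogen activation per viability signal from cell pellet.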 In kind it is functional, Streptococcus pyogenes M1 GAS.

Assay [3] has as its system Streptococcus sp. 'group A'. The experiment in a line: growth inhibition of control SK(-) GAS strain, dose response, counter-screen for streptokinase expression inhibitor project, luminescence, kanamycin, BacTiterGlo, confirmation (AID 1900). In kind it is functional, organism-based. In general terms: A counterscreen serves to expose hits that act by an unwanted route or on another target.

In another assay the target is Cytochrome P450 3A4 (Homo sapiens, UniProt P08684).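 Also: CYP3A4 tested as one member of a cytochrome P450 panel screen.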
Assay [4] can be described thus: cytotoxicity toward NIH3T3 fibroblasts, dose response, counter-screen, cell-based, ATP luminescence, mouse fibroblasts (AID 2010).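 Also: cells exposed to compound for about 90 hours before reading.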 In kind it is functional.
Assay [5] is described as follows: inhibitors of intracellular T. cruzi replication, confirmation, NIH3T3 host cells, beta-gal luminescence (AID 2044).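 Also: intracellular parasites grown in NIH/3T3 mouse fibroblasts as host cells; luminescent beta-galactosidase reporter signal from transgenic T. cruzi replicating inside host cells; inhibitors lower the luminescence signal.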 In kind it is functional, cell-based.
The target in assay [6] is T3, Corticotropin-releasing factor receptor 2/Corticotropin-releasing factor-binding protein (Homo sapiens, UniProt P24387+Q13324).
T3 sequence (Q13324 whole entry): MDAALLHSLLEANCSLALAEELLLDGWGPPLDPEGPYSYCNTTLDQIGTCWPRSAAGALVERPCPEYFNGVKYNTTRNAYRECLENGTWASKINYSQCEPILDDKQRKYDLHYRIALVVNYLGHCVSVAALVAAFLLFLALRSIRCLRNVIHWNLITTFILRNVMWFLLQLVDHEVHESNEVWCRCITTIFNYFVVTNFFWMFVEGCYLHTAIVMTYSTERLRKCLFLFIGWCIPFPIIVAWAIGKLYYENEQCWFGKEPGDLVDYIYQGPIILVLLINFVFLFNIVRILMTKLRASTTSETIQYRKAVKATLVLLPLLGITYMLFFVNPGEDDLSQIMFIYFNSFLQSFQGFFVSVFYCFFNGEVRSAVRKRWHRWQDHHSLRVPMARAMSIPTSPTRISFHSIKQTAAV
T3 sequence (P24387 whole entry): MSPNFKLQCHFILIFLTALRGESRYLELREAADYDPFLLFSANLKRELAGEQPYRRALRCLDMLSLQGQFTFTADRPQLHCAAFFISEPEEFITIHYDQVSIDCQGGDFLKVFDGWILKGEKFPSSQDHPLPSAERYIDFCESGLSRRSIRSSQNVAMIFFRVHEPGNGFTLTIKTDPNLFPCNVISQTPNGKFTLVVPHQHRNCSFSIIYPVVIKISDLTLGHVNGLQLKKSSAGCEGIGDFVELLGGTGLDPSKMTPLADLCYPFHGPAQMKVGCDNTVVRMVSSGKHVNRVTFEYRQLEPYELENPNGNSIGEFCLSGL
The assay can be described thus: activators of CRF receptor 2 with binding protein – uHTS hits, confirmation (AID 602473). In kind it is functional. The note with it: read-out: EC50_Mean.

Assay [7] deals with T3, Corticotropin-releasing factor receptor 2/Corticotropin-releasing factor-binding protein. The assay can be described thus: Dose Response confirmation of uHTS hits for small molecule antagonists of the CRF-binding protein and CRF-R2 receptor complex. In kind it is functional. The note with it: read-out: IC50_Mean.

Structures are written as SMILES. Activity calls are given as the source filed them. Rule as the data show it, for most assays here: actives have a measured EC50 and inactives only a lower limit.

Sequence of Cytochrome P450 2D6 (P10635 whole entry): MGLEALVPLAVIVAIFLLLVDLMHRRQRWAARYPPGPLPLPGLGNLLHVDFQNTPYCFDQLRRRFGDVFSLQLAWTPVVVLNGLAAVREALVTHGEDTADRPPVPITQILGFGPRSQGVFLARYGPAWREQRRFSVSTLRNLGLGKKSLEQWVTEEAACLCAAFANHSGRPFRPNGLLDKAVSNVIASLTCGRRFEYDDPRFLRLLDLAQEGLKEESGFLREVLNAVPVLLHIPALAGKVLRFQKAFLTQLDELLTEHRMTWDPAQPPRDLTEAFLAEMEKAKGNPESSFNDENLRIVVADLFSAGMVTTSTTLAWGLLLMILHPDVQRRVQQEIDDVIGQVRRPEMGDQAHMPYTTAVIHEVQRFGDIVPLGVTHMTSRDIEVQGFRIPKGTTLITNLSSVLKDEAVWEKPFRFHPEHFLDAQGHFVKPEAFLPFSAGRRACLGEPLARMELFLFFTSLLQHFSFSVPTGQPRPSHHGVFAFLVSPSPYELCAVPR
Sequence of Cytochrome P450 3A4 (P08684 whole entry): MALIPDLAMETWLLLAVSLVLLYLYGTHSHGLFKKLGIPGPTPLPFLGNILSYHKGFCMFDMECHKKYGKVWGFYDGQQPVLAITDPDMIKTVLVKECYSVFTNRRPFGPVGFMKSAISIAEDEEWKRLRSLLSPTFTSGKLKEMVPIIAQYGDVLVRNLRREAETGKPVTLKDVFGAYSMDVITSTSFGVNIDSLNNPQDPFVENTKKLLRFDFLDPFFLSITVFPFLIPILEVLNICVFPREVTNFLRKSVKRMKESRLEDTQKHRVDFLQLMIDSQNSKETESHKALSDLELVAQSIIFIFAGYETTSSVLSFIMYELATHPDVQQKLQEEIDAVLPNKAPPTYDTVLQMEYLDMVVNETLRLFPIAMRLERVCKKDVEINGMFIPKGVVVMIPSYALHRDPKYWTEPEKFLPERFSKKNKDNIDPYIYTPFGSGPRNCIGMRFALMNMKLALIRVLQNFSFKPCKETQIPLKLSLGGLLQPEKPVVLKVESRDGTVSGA

In the case of `CCN(CC)c1ccc(NC(=O)COC(=O)CCC(=O)c2cccs2)cc1`, the IC50 in assay [1] was 74.4 µM (active).

In the case of `O=C(COc1ccc(Nc2ccccc2)cc1)OCC(=O)N1CCCCC1`, the IC50 in assay [1] was 98.2 µM (active); in the assay “cells”, 2.49 µM (active). As to `Fc1ccc(CSc2nnc(-c3ccccn3)o2)cc1`, the values for the EC50 (with H4; in assay [2]) were 0.175 µM (active) and 0.103 µM (active), respectively. For `COC(=O)c1cc2c(ccc3ccccc32)oc1=O`, in “cells”, the IC50 is 6.54 µM (active).

Take `CN(C)/C=N/c1ncc(C(=O)c2ccccc2)s1`: the EC50 is 119 µM (active) in the assay on H4 and 0.251 µM (active) in assay [2].

In the case of `Cc1cc(C)c(OCCCCN2CCC(C)CC2)c(Br)c1`, the IC50 in assay [1] was 212 µM (active). As for `CCCCNC(=O)Nc1nnc(-c2ccc(Cl)cc2)o1`, in the assay “cells”, the IC50 is 13.2 µM (active).

`CC(=O)Nc1cccc(-c2csc(NCc3ccccc3)n2)c1`: in [1], the IC50 is 65 µM (active).

For `CCOC(=O)C(=NCCOC)NNc1cc(Cl)ccc1Cl`, the IC50 in “cells” was > 50 µM (active). With `CC(C)(C)c1ccc(OCCC(=O)OCC(=O)NC2CC2)cc1`, in “cells”, the IC50 was 48.5 µM (active). With `O=c1c2ccccc2nc2oc3ccccc3n12`, the figures for the EC50 (in the assay on H4; in assay [2]) were 0.139 µM (active) and 0.123 µM (active), respectively. In the case of `COc1cc(CNCc2cccs2)ccc1OCC(=O)NC(C)(C)C`, the AC50 (usually the concentration giving half of the maximal activity seen) at Cytochrome P450 2D6 was 10 µM (inconclusive). For the molecule `NNc1nc(-c2ccccc2)c2cc(Br)ccc2n1`, the figures for the EC50 (in the assay with Streptococcus; at Streptokinase A; in assay [3]) were 41.8 µM (active), > 150 µM (not active) and 10.1 µM (active), respectively. Consider `CCOC(=O)c1cnn(-c2nc(-c3ccccc3)cs2)c1C(F)(F)F`, for which the results for the EC50 (with Streptococcus; at Streptokinase A; in assay [3]) were > 150 µM (not active), 15.6 µM (active) and 14.6 µM (active), respectively.

With `COc1ccc(-c2cc(=O)oc(-c3cccc(C)c3)n2)cc1`, in the assay “cells”, the IC50 was 35.9 µM (active).

Consider `CC(=O)n1c(COS(C)(=O)=O)nc2ccccc21`, for which the AC50 is 5.01 µM (inconclusive) at Cytochrome P450 2D6 and 3.16 µM (inconclusive) on Cytochrome P450 3A4. On to `O/C(=C\C=N\c1ccccc1O)c1ccco1`, for which the IC50 in the assay “cells” was 4.76 µM (active). Take `COc1ccc(/C=C/c2ccc3cccc(O)c3n2)cc1Br`: the figures for the EC50 (in the assay on Streptococcus; at Streptokinase A; in assay [3]) were 13.5 µM (active), > 150 µM (not active) and 0.796 µM (active), respectively. Turning to `COc1cc(/C=N/NC(=O)c2ccc(N3CCCC3=O)cc2)ccc1O`, the IC50 in assay [1] was 30.8 µM (active).

As for `O=C(NCc1ccc(C(F)(F)F)cc1)c1ccc2c(c1)S(=O)(=O)c1ccccc1C2=O`, the EC50 (in the assay on Streptococcus; at Streptokinase A; in [3]) was > 150 µM (not active) throughout.

Regarding `O=C(NN=Cc1ccc(O)cc1O)c1ccccc1NS(=O)(=O)c1cccs1`, the IC50 in [1] was 110 µM (active). For the molecule `N#CCSc1nc2ccc(N3CCOCC3)cc2c(=O)n1CCc1ccccc1`, the EC50 in the assay with Streptococcus is 13.1 µM (active); at Streptokinase A it was > 150 µM (not active); in assay [3] it was 7.19 µM (active). On to `O=C(Nc1cccc(C(F)(F)F)c1)c1cc2c(=O)c3ccccc3oc2nc1C(F)(F)F`, for which the EC50 with Streptococcus is 65.1 µM (active); at Streptokinase A it was 43.3 µM (inconclusive); in assay [3] it was 18.7 µM (active). In the case of `O=C(CCCC(=O)c1ccccc1)Nc1ccc(O)cc1`, the IC50 in assay [1] is 15.8 µM (active). `Fc1cccc2sc(N3CCCC3)nc12`: the IC50 in the assay “cells” is > 50 µM (active). In the case of `COc1ccc(OC(=O)c2cc(S(=O)(=O)N3CCCC3)ccc2Cl)cc1`, the IC50 in assay [1] is 63 µM (active).

With `O=C1/C(=C/c2cccnc2)S/C(=N/Cc2ccccc2)N1Cc1ccccc1`, the EC50 in assay [4] is > 60 µM (not active); in assay [5], 1.66 µM (active); with Streptococcus it was > 150 µM (not active); at Streptokinase A it was 14.7 µM (active); in assay [3] it was 21.6 µM (active).

For `O=c1[nH]c2ccc(Cl)cc2c(-c2ccccc2)c1N1CCN(c2ccccn2)CC1`, the EC50 on Streptokinase A was 3.83 µM (active).

`Clc1cc(Br)ccc1OCCOCCN1CCCC1`: the results for the EC50 in [4] and in assay [5] were > 60 µM (not active) and 1.46 µM (active), respectively. Moreover, the IC50 in assay [1] is 135 µM (active). Take `COc1ccc(COC(=O)N/N=C2/C[C@@H](O)[C@@H](O)[C@@H]3[C@@H]4C(=O)N(c5cccc(Oc6ccccc6)c5)C(=O)[C@H]4CC[C@H]23)cc1`: at Cytochrome P450 2D6, the concentration at half-maximal activity (AC50) is 2.51 µM (inconclusive).

As for `C/C(=N\NC(=O)c1cc2ccccc2cc1O)c1cccs1`, the EC50 in assay [4] was > 60 µM (not active); in assay [5], 44.7 µM (active); in the assay with Streptococcus, 59.6 µM (active); on Streptokinase A, > 150 µM (not active); in assay [3] it was 18.3 µM (active). For `OC(COc1cccc2ccccc12)CN1CCN(c2cccc(Cl)c2)CC1` (stereo unspecified), the EC50 in the assay with Streptococcus was 31 µM (active); on Streptokinase A, 20.1 µM (active); in assay [3], 15.5 µM (active). For the molecule `CC1CCN(CCc2nc3cc(NC(=O)NC4CCCCC4)ccc3n2C)CC1`, the concentration at half-maximal activity (AC50) at Cytochrome P450 2D6 was 25.1 µM (inconclusive). Same read-out and setting: under `CCC[C@@H]1C[C@@]1(CCC)C(NS(=O)(=O)c1cccc2cccnc12)c1ccc(Cl)cc1` (stereo partly specified) stands 39.8 µM (inconclusive). As to `O=S(=O)(Nc1nc2ccccc2nc1Cl)c1ccc2ccccc2c1`, the EC50 in the assay on Streptococcus is > 150 µM (not active); on Streptokinase A, 15.1 µM (active); in assay [3], 9.62 µM (active). As for `CCOC(=O)c1[nH]c(COC(=O)CCOc2ccccc2OC)c(C(=O)OCC)c1C`, the half-maximal activity concentration (AC50) on Cytochrome P450 2D6 was 15.8 µM (inconclusive). Take `O=C(Oc1ccccc1)c1ccc(NC(=O)c2ccco2)cc1`: in assay [6], the EC50 is > 53 µM (inactive). The IC50 in “cells” was 4.4 µM (active); in assay [7] it was > 47.1 µM (inactive). Take `CCOC(=O)C(C)(C)n1nnc(-c2ccc([N+](=O)[O-])cc2)n1`: the IC50 in the assay “cells” is 45.9 µM (active).

These data come from ChEMBL document CHEMBL1201862, “PubChem BioAssay data set” (2004).
